Assay [1] addresses T1, PBP3 from Escherichia coli (Escherichia coli, UniProt P0AD68).
T1 construct: made in house
In words: Fluorescence polarization competition binding assay with Bocillin-FL. The method, boiled down:
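Fluorescence polarization competition assay with Bocillin-FL at 0.1 μM final and purified E. coli PBP3 at 1.5 μM final in 50 mM Hepes pH 8.0, 300 mM NaCl, 5% glycerol. Inhibitor preincubated with PBP3 for 30 min before probe addition; FP then read continuously for 60 min. Potency reported in binned categories.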
Background: In fluorescence polarisation assays a small probe gives low polarisation when free and higher when bound to something large.

Assay [2] has as its target T1, PBP3 from Escherichia coli. Kind of assay: Competition binding assay using Bodipy-FL boronic acid probe (Example 95). To be noted: PBP3 3 μM, read-out: E. coli K12 PBP3 Potency. The procedure:
PBP3 from Escherichia coli was cloned and purified as described previously (King, D. T, et al., ACS Infectious Diseases 2015, 1, 175-184). To establish assay conditions for competition binding, an enzyme titration/saturation binding experiment was performed. […] FP was measured immediately upon addition of PBP3 (Ex, Em), using a Cytation3 (BioTek) microplate reader and measured continuously for 60 minutes. […] The competition binding assay was validated using the beta-lactam ampicillin, with Bocillin-FL at a final concentration of 0.1 μM, PBP3 at a final concentration of 1.5 μM and concentrations of ampicillin from 0-1000 μM. […] Binding assays for boronic acid PBP inhibitors were performed in an identical fashion. Representative results are shown in Table 3, where A represents a potency of >500 μM, B represents a potency between 30 μM and 500 μM inclusive, and C represents a potency of <30 μM. NT=Not Tested.
The method described in Example II was adapted to use a Bodipy-labeled boronic acid PBP inhibitor (Example 13 or Example 95) to assess PBP3 potency of boronic acid PBP inhibitors. The method is identical to that described in Example II for the Bocillin-FL competition binding assay, with the following exceptions: PBP3 from Escherichia coli is used at a final concentration of 3 μM. […]

Assay [3] addresses T2, PBP1a from Escherichia coli (Escherichia coli, UniProt P02918).
T2 construct: made in house
Kind of assay: Radioligand competition binding assay with 14C-labeled boronic acid probe (Example 96). The method, boiled down: (§1)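 Purified PBP (0.1 μM) in 20 mM Tris pH 7.5, 500 mM NaCl, 0.1% Triton X-100 preincubated 60 min with inhibitor, then 60 min with 20 μM 14C-boronic acid probe. Bound probe recovered by spin desalting and counted by scintillation; EC50 is the concentration halving probe binding.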
Background: Displacement assays read how much labelled ligand stays bound in the presence of the test substance.

Assay [4] deals with T3, PBP1b from Escherichia coli (Escherichia coli, UniProt P02919).
T3 construct: made in house
T3 sequence (P02919 whole entry): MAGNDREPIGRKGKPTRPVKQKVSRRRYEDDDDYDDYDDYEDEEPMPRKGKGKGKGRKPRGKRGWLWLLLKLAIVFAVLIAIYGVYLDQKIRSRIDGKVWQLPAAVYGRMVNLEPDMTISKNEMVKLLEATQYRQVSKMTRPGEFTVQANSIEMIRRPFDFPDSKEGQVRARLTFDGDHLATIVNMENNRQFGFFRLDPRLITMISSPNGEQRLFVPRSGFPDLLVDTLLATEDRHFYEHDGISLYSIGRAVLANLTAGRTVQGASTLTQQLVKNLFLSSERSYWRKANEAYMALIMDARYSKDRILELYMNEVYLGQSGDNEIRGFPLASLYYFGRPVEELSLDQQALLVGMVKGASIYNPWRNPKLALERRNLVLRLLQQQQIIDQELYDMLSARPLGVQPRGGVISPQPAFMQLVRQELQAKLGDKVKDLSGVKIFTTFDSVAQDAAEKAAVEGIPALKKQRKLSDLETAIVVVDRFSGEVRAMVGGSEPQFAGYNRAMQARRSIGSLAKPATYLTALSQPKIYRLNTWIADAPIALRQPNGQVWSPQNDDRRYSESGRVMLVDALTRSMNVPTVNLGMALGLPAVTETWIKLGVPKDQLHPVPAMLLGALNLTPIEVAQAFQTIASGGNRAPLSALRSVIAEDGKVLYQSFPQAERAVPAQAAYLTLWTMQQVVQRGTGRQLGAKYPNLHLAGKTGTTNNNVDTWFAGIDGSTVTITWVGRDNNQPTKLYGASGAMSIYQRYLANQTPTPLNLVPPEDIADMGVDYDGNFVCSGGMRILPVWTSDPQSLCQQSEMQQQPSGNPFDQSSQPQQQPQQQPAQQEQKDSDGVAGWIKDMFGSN
Described as above. The method, boiled down:
as §1

Where [5] appears, read: PBP1a/PBP1b 0.1 μM, 96 at 20 μM, assay validation, read-out: EC50 (concentration of inhibitor required to reduce binding of 96 by 50%).

The structures appear in SMILES notation. Read-outs that look alike come from different tables or passages of the source.

T1 sequence (P0AD68 1-577): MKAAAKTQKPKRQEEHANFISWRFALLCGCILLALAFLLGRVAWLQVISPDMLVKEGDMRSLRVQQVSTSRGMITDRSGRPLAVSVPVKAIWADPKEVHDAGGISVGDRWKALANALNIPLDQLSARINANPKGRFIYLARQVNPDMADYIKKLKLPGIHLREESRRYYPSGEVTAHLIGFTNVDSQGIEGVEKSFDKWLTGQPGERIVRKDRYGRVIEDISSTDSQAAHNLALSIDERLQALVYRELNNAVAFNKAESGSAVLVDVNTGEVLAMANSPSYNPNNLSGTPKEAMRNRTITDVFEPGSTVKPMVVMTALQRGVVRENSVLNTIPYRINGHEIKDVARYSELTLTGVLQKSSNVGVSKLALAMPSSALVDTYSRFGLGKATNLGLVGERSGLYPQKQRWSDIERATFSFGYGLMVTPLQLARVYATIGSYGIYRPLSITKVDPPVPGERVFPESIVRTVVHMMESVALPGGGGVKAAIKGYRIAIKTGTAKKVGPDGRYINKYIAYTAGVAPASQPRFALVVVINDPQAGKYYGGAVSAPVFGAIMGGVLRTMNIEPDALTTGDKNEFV
T2 sequence (P02918 whole entry): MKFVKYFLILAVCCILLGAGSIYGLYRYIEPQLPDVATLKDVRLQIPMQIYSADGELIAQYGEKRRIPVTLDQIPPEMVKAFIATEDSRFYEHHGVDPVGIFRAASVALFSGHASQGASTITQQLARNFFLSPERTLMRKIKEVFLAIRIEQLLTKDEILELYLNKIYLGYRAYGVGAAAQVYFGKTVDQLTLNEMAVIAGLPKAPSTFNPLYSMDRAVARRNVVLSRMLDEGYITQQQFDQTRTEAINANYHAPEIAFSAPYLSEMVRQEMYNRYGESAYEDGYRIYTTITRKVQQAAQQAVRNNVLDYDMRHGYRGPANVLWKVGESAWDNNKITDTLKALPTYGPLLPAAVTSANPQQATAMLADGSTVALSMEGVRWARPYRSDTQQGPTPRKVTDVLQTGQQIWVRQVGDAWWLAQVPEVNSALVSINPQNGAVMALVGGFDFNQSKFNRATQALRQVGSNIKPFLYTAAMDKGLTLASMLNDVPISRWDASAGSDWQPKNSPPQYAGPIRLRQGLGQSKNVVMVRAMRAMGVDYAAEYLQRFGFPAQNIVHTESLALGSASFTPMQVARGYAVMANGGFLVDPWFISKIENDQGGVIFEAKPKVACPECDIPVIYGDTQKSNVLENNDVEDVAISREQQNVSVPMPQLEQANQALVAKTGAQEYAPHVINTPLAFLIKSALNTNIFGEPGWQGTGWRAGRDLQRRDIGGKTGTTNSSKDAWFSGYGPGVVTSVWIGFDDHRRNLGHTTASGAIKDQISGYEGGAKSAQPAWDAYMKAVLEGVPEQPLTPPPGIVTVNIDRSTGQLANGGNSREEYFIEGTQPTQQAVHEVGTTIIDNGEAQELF

For the molecule `CC1(C)S[C@@H]2[C@H](NC(=O)[C@H](N)c3ccccc3)C(=O)N2[C@H]1C(=O)O` [ampicillin, reference compound], the EC50 in assay [1] is 1400 nM; in assay [2] it was below 10000 nM; in assay [3] (14C-labeled probe 96 at 20 μM, PBP 0.1 μM, read-out: E. coli K12 PBP1a EC50), below 10000 nM; in assay [3] (setting [5]) it was below 500 nM; in assay [4] (14C-labeled probe 96 at 20 μM, PBP 0.1 μM, read-out: E. coli K12 PBP1b EC50) it was below 10000 nM; in assay [4] (setting [5]) it was below 500 nM.

(Values after patent publication US11332485B2, “Penicillin-binding protein inhibitors” (priority 2017, dated 2022).)
